Source: the supplement of paper PMC4858399
Counter-ions that a name gives are not always drawn.

Tests used:
[1] = tested on: Caenorhabditis elegans N2; test: lowest effective concentration for larval growth inhibition (size below effect threshold); higher = less potent; details: exposure time 48 h
Summary of the method: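 Worm size was taken as per-worm extinction on the Biosort, log-transformed and turned into well means. The larvae (C. elegans N2, L1 stage, 50 per 96-well) had spent 48 h at 20°C in K-medium with killed bacteria, 1% DMSO and 0.5, 1, 5, 10, 50, 100 or 200 µM chemical. The lowest effective concentration marks the first dose where the plate-adjusted mean size drops under a cutoff and remains under it at every higher dose; the cutoff is 5.665.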

[2] = tested on: Caenorhabditis elegans N2; test: mean nematode size ln(EXT) after 48 h, plate-adjusted (DMSO control set to 6) (ln(EXT), control-adjusted); higher = larger nematodes / less growth inhibition; details: exposure time 48 h
Summary of the method: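 Synchronised C. elegans N2 L1 larvae (50 per well, 4–6 wells per treatment) were grown for 48 h at 20°C in K-medium with killed OP50, 1% DMSO and 0.5–200 µM chemical. The Biosort measured each worm's extinction, and debris was removed by a growth model. Values were natural-logged and averaged per well. Mean size was then plate-adjusted by subtracting the vehicle control mean and adding 6.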

SMILES	lowest effective concentration [1]	mean nematode size ln(EXT) (ln) ([2]; 0.5 µM)	mean nematode size ln(EXT) (ln) ([2]; 1 µM)	mean nematode size ln(EXT) (ln) ([2]; 5 µM)	mean nematode size ln(EXT) (ln) ([2]; 10 µM)	mean nematode size ln(EXT) (ln) ([2]; 50 µM)	mean nematode size ln(EXT) (ln) ([2]; 100 µM)	mean nematode size ln(EXT) (ln) ([2]; 200 µM)
CC(C)c1ccc(C(=O)N=C(N)N)cc1S(C)(=O)=O [Cariporide mesylate (HOE642)]	> 200 µM	5.88	5.82	5.8	5.77	5.7	5.62	5.71
Oc1ccccc1O [Catechol]	> 200 µM	5.94	5.82	5.86	5.84	5.9	5.95	5.72
Nc1cnn(-c2ccccc2)c(=O)c1Cl [Chloridazon]	> 200 µM	5.51	5.47	5.3	6.01	5.44	5.44	5.89
O=C(O)CC(O)(CC(=O)O)C(=O)O [Citric acid]	> 200 µM	5.85	6.03	6.03	5.9	5.99	5.63	5.73
Clc1ccccc1-c1nnc(-c2ccccc2Cl)nn1 [Clofentezine]	> 200 µM	6.25	6.03	6.11	5.96	5.86	5.98	5.73
CC1(C)CON(Cc2ccccc2Cl)C1=O [Clomazone]	> 200 µM	6.09	6.23	6.29	6.06	6.2	6.07	5.68
CC(Oc1cccc(Cl)c1)C(=O)O (stereo not given) [Cloprop]	> 200 µM	5.97	5.98	6.03	6.09	6.01	5.99	5.69
O=C(O)c1nc(Cl)ccc1Cl [Clopyralid-olamine]	> 200 µM	5.87	5.89	5.95	5.89	5.88	5.98	5.95
O=C(O)c1nc(Cl)ccc1Cl [Clopyralid]	> 200 µM	5.75	5.75	5.75	5.87	5.93	5.89	6.08
CN/C(=N\[N+](=O)[O-])NCc1cnc(Cl)s1 [Clothianidin]	> 200 µM	5.89	5.99	5.78	6.1	6.05	6.02	5.96
COc1cc2c(c(OC)c1OC)-c1ccc(OC)c(=O)cc1[C@@H](NC(C)=O)CC2 [Colchicine]	> 200 µM	5.82	5.93	5.87	5.95	5.92	5.89	5.7
O=c1ccc2ccccc2o1 [Coumarin]	> 200 µM	5.93	5.92	5.85	5.93	5.94	5.95	5.8
N#CN [Cyanamide]	> 200 µM	5.91	5.96	6.01	6	5.96	6.01	5.92
CCNc1nc(Cl)nc(NC(C)(C)C#N)n1 [Cyanazine]	> 200 µM	5.89	5.95	5.88	6.03	6.26	6.42	5.86
O=C(O)C1(C(=O)Nc2ccc(Cl)cc2Cl)CC1 [Cyclanilide]	> 200 µM	6.16	6.05	6.18	6.27	6.34	6.38	5.9
NC1CCCCC1 [Cyclohexylamine]	> 200 µM	5.84	5.95	5.82	5.85	5.98	5.83	5.86
CC1(C)C(C=C(Cl)Cl)C1C(=O)OC(C#N)c1ccc(F)c(Oc2ccccc2)c1 (stereo not given) [Cyfluthrin]	> 200 µM	6.09	6.69	6.12	6.22	6.18	6.44	5.7
Nc1nc(N)nc(NC2CC2)n1 [Cyromazine]	> 200 µM	5.45	5.67	5.56	5.57	5.42	6.14	5.94
O=P1(N(CCCl)CCCl)NCCCO1 (stereo not given) [Cytoxan hydrate]	> 200 µM	5.87	5.9	5.89	5.8	5.92	5.9	5.93
CC(Cl)(Cl)C(=O)O [Dalapon]	> 200 µM	5.78	6.06	6.05	6.04	5.95	5.93	5.79
CN1CSC(=S)N(C)C1 [Dazomet]	> 200 µM	5.73	5.62	5.46	5.71	5.78	5.55	5.83
CCCCCCCCCC [Decane]	> 200 µM	5.95	5.8	5.91	5.8	5.87	5.83	5.75
O=C(OCCOCCOC(=O)c1ccccc1)c1ccccc1 [Di(ethylene glycol) dibenzoate]	200 µM	5.89	5.82	5.77	5.76	5.71	5.79	5.66
CCCCCCCCOC(=O)c1ccccc1C(=O)OCCCCCCCC [Di-n-octyl phthalate]	> 200 µM	5.93	5.87	5.9	5.85	5.88	5.83	5.83
CCOP(=O)(OCC)Oc1cc(C)nc(C(C)C)n1 [Diazoxon]	> 200 µM	6.19	6.09	6.08	6.06	6.05	6.1	5.93
COc1c(Cl)ccc(Cl)c1C(=O)O [Dicamba]	> 200 µM	5.78	5.92	5.72	5.98	6.18	6.37	6.03
O=C(O)C(Cl)Cl [Dichloroacetic acid]	> 200 µM	5.56	5.97	6.02	5.89	5.98	5.92	5.7
O=C(O)Cc1ccccc1Nc1c(Cl)cccc1Cl [Diclofenac sodium salt]	> 200 µM	5.93	5.95	5.92	5.99	5.92	5.9	5.83

SMILES	lowest effective concentration [1]	mean nematode size ln(EXT) (ln) ([2]; 0.5 µM)	mean nematode size ln(EXT) (ln) ([2]; 1 µM)	mean nematode size ln(EXT) (ln) ([2]; 5 µM)	mean nematode size ln(EXT) (ln) ([2]; 10 µM)	mean nematode size ln(EXT) (ln) ([2]; 50 µM)	mean nematode size ln(EXT) (ln) ([2]; 100 µM)	mean nematode size ln(EXT) (ln) ([2]; 200 µM)
CCOc1nc(F)cc2nc(S(=O)(=O)Nc3c(Cl)cccc3Cl)nn12 [Diclosulam]	> 200 µM	6.11	6.13	6.09	6.14	6.15	6.17	5.79
COP(=O)(OC)O/C(C)=C/C(=O)N(C)C [Dicrotophos]	> 200 µM	6.11	6.42	6.04	6.07	6.05	6.05	5.85
O=c1[nH]cnc2c1ncn2[C@H]1CC[C@@H](CO)O1 [Didanosine]	> 200 µM	5.88	5.86	5.85	5.84	5.89	5.96	5.76
OCCNCCO [Diethanolamine]	> 200 µM	6.04	6.05	6.04	6.02	6.1	6.07	5.79
CCOC(=O)c1ccccc1C(=O)OCC [Diethyl phthalate]	> 200 µM	5.92	5.85	5.82	5.76	5.94	5.81	5.79
CCOCCOCCO [Diethylene glycol monoethyl ether]	> 200 µM	6.02	6.03	6.07	6.05	6.03	6.06	5.76
COCCOCCO [Diethylene glycol monomethyl ether]	> 200 µM	5.87	5.91	5.93	5.85	5.82	5.94	5.68
OCCOCCO [Diethylene glycol]	> 200 µM	5.91	5.95	5.92	5.86	5.92	5.78	5.69
CCCCC(CC)COC(=O)c1ccccc1C(=O)OCC(CC)CCCC (stereo not given) [Diethylhexyl phthalate]	> 200 µM	5.9	5.91	5.76	5.85	5.67	6.02	5.76
CCN(CC)C(=O)c1cccc(C)c1 [Diethyltoluamide]	> 200 µM	5.86	5.86	5.91	6.14	6	5.91	5.85
Cn1c(-c2ccccc2)cc(-c2ccccc2)[n+]1C [Difenzoquat metilsulfate]	> 200 µM	6.06	6.04	6.06	6.07	5.99	6.1	5.9
CC(C)CCCCCCOC(=O)CCCCC(=O)OCCCCCCC(C)C [Diisononyl adipate]	> 200 µM	5.94	5.98	5.93	5.92	5.87	5.91	5.69
COCC(C)N(C(=O)CCl)c1c(C)csc1C (stereo not given) [Dimethenamid]	> 200 µM	6.08	5.91	6.17	6.03	5.87	6.56	5.99
CC1=C(C)S(=O)(=O)CCS1(=O)=O [Dimethipin]	> 200 µM	5.96	5.96	5.91	5.93	5.98	6	5.93
CNC(=O)CSP(=S)(OC)OC [Dimethoate]	> 200 µM	6.23	6.15	6.18	6.23	6.24	6.21	5.95
COC(=O)CCCC(=O)OC [Dimethyl glutarate]	> 200 µM	5.91	5.94	5.9	6.02	6.01	6.04	5.78
COC(=O)CC(=O)OC [Dimethyl malonate]	> 200 µM	5.85	5.89	5.88	6.13	5.87	5.89	5.75
COC(=O)c1ccccc1C(=O)OC [Dimethyl phthalate]	> 200 µM	5.82	5.99	6.07	6.01	6.18	6.01	5.98
COC(=O)CCC(=O)OC [Dimethyl succinate]	> 200 µM	5.88	5.94	5.85	6.11	5.84	5.87	5.96
CN(C)C(=O)Cl [Dimethylcarbamoyl chloride]	> 200 µM	5.77	5.81	5.82	5.71	5.84	5.9	5.73
CCCCCOC(=O)c1ccccc1C(=O)OCCCCC [Dipentyl phthalate]	> 200 µM	5.85	5.86	5.89	5.87	5.85	5.81	5.73
O=C(Oc1ccccc1)c1cccc(C(=O)Oc2ccccc2)c1 [Diphenyl isophthalate]	> 200 µM	5.87	5.89	5.87	5.87	5.94	5.94	5.7
CC(CO)OC(C)CO.CC(O)COCC(C)O (stereo not given) [Dipropylene glycol]	> 200 µM	5.74	5.73	5.79	5.87	5.74	5.66	5.87
CCCN(CCC)C(=O)SCC [EPTC]	> 200 µM	6.11	6.22	6.09	6	6.1	6.12	5.86
CC[C@H]1OC(=O)[C@H](C)[C@@H](O[C@H]2C[C@@](C)(OC)[C@@H](O)[C@H](C)O2)[C@H](C)[C@@H](O[C@@H]2O[C@H](C)C[C@H](N(C)C)[C@H]2O)[C@](C)(O)C[C@@H](C)C(=O)[C@H](C)[C@@H](O)[C@]1(C)O [Erythromycin]	> 200 µM	5.95	5.89	5.94	5.9	5.86	5.92	5.84
NCCO [Ethanolamine]	> 200 µM	5.86	5.87	5.79	5.73	5.75	5.76	5.76
O=P(O)(O)CCCl [Ethephon]	> 200 µM	5.96	5.93	5.97	5.94	6.03	6.05	5.88
